How the values were obtained:
Assay type in all cases: biochemical
ErbB2 = molecular target: T1, ErbB2 (Homo sapiens, UniProt P04626); test: ErbB-2 substrate phosphorylation assay (HTRF)
T1 construct: made in house; host or cells: baculovirus expression system
How it was run: (§1)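 Baculovirus-expressed EGFR (0.8 nM) or ErbB2 (10 nM) in enzyme mix, preincubated 1 h at 20 °C with compound (0.00027–47.6 μM final), then 90 min at 20 °C with substrate mix of 20 μM ATP, 0.8 uM biotinylated Peptide C, MnCl2, MOPS pH 7.5. Phosphotyrosine by HTRF; pIC50 reported.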

B-Raf = B-Raf (Homo sapiens, UniProt P15056); test: B-Raf Accelerated MEK ATPase assay (BRAMA), Method A or B
How it was run: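 ADP production, initiated by catalytic activated Raf with unphosphorylated MEK, is followed by NADH oxidation through a PK/LDH coupled system. Method B differs from the kinetic Method A by a single end-point read and 150 nM final MEK.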

EGFR = molecular target: T2, EGFR (Homo sapiens, UniProt P00533); test: EGFR substrate phosphorylation assay (HTRF)
T2 construct: made in house; host or cells: baculovirus expression system
How it was run: as §1

[1] = Method B: final MEK 150 nM, single end point read

B-Raf, sequence (P15056 whole entry): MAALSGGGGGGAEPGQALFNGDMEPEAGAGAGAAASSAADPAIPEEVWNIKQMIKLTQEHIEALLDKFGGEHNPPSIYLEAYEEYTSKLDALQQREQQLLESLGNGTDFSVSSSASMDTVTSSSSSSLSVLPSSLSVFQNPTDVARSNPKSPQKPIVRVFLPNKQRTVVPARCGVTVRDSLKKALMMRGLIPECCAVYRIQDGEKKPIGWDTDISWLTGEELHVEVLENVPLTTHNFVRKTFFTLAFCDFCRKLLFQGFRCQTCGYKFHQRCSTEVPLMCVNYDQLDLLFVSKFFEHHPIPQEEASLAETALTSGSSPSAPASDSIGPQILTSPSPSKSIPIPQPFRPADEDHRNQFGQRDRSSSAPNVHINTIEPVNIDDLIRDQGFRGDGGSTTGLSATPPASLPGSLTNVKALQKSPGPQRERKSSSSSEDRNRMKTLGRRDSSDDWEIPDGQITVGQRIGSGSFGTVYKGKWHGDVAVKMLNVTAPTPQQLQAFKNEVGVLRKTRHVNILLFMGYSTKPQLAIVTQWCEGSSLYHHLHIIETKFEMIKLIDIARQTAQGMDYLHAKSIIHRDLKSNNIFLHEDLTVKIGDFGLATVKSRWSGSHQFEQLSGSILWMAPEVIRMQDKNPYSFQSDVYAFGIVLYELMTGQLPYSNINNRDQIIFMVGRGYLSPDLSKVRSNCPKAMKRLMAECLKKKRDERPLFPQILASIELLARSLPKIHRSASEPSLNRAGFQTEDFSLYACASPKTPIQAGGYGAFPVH
T2 sequence (P00533 25-1210): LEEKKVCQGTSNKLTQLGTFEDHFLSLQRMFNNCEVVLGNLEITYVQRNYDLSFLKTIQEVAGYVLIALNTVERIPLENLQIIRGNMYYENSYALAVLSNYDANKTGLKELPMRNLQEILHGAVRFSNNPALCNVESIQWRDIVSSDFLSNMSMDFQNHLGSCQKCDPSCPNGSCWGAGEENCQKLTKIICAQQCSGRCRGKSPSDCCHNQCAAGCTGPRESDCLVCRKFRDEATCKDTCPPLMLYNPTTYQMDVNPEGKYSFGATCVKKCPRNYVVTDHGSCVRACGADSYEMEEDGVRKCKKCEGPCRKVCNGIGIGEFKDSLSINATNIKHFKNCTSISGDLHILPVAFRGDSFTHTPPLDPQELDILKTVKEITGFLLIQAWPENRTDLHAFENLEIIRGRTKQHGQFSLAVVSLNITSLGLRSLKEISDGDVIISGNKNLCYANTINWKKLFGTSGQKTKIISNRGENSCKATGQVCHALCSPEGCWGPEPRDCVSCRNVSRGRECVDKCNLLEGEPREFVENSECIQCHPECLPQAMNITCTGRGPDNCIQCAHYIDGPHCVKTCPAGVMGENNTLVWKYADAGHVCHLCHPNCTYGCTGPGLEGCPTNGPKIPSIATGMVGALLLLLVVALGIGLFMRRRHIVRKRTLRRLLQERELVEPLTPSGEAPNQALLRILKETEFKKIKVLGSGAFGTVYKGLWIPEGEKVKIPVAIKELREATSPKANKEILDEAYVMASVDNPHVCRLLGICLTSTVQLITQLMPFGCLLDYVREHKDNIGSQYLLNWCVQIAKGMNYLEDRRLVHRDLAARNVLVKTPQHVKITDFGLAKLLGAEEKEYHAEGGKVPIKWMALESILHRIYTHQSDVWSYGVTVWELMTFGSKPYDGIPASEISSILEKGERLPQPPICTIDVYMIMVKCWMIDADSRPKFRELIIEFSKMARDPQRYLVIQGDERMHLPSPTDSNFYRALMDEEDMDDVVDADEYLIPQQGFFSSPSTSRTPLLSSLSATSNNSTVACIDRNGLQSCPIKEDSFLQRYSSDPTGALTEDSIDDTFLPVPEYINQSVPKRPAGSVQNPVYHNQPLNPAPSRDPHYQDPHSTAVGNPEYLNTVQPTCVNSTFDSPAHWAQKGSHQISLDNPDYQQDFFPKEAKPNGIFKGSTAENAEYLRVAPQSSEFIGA
T1 sequence (P04626 23-1255): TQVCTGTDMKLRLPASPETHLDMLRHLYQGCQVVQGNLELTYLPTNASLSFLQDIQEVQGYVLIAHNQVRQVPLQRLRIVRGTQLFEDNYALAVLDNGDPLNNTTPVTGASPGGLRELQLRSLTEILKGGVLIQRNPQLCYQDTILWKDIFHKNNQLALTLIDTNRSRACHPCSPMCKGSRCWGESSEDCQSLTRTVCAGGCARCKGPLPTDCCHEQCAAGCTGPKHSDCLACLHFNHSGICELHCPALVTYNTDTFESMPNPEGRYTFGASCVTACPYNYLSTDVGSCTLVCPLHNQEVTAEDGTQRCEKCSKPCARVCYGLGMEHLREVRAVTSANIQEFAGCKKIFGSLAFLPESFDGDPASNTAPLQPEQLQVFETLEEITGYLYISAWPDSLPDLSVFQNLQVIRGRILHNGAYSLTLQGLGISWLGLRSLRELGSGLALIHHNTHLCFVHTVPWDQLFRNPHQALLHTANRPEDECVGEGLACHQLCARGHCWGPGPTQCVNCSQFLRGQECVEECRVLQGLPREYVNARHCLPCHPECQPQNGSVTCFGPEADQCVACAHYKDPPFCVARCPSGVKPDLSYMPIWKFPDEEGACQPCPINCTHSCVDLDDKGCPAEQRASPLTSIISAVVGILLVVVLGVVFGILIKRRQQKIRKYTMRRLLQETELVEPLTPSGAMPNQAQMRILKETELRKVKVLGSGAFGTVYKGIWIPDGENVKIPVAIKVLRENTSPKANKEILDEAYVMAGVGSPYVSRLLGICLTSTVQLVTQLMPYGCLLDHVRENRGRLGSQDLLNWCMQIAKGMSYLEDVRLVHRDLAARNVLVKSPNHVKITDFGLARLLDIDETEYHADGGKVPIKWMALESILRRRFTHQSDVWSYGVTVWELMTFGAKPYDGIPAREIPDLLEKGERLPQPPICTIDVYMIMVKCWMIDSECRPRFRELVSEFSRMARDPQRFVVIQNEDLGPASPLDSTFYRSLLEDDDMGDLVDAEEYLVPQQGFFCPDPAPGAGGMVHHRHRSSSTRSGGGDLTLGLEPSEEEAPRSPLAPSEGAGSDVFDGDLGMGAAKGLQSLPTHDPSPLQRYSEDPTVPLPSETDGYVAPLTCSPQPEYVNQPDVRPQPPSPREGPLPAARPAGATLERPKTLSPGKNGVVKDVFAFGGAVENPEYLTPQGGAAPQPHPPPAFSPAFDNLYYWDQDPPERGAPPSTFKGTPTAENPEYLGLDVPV

| IC50 (ErbB2) [µM] | IC50 (B-Raf; [1]) [µM] | IC50 (EGFR) [µM] | IC50 (B-Raf; Method A) [µM] | SMILES |
| --- | --- | --- | --- | --- |
| > 1 | < 0.1 | 0.1 to 1 | – | CC(C)c1nc(-c2cc(F)cc(NS(=O)(=O)c3c(F)cccc3F)c2)c(-c2ccnc(Nc3ccc(N4CCOCC4)nc3)n2)s1 [Example 84] |
| > 1 | < 0.1 | > 1 | – | CCc1nc(-c2cccc(NS(=O)(=O)c3ccccc3)c2)c(-c2ccnc(Nc3ccc(N4CCN(C(C)=O)CC4)nc3)n2)s1 [Example 3, N-{3-[5-(2-{[6-(4-Acetyl-1-piperazinyl)-3-pyridinyl]amino}-4-pyrimidinyl)-2-ethyl-1,3-thiazol-4-yl]phenyl}benzenesulfonamide] |
| 0.1 to 1 | < 0.1 | < 0.1 | – | CC(C)c1nc(-c2cccc(NS(=O)(=O)c3c(F)cccc3F)c2)c(-c2ccnc(Nc3ccc(N4CCCNCC4)nc3)n2)s1 [Example 82] |
| > 1 | < 0.1 | > 1 | – | CC(C)c1nc(-c2cccc(NS(=O)(=O)c3ccccc3)c2)c(-c2ccnc(Nc3ccc(N4CCOCC4)cn3)n2)s1 [Example 92] |
| > 1 | – | > 1 | 0.1 to 1 | CCc1nc(-c2cccc(NS(=O)(=O)c3ccccc3)c2)c(-c2ccnc(Nc3ccc(N4CCOCC4)c(F)c3)n2)s1 [Example 4] |
| 0.1 to 1 | < 0.1 | 0.1 to 1 | – | CC(C)c1nc(-c2cccc(NS(=O)(=O)c3c(F)cccc3F)c2)c(-c2ccnc(Nc3ccc(N4CCN(C(C)C)CC4)cc3O)n2)s1 [Example 78] |
| 0.1 to 1 | < 0.1 | 0.1 to 1 | – | CC(C)c1nc(-c2cccc(NS(=O)(=O)c3c(F)cccc3F)c2)c(-c2ccnc(Nc3ccc(N4CCCN(CCS(C)(=O)=O)CC4)nc3)n2)s1 [Example 88] |
| > 1 | < 0.1 | 0.1 to 1 | – | CC(C)c1nc(-c2cccc(NS(=O)(=O)c3ccccc3)c2)c(-c2ccnc(Nc3ccc(CC4CCN(CCS(C)(=O)=O)CC4)c(F)c3)n2)s1 [Example 72] |
| 0.1 to 1 | < 0.1 | 0.1 to 1 | – | COc1cc(N2CCN(CCF)CC2)ccc1Nc1nccc(-c2sc(C(C)C)nc2-c2cccc(NS(=O)(=O)c3c(F)cccc3F)c2)n1 [Example 79] |
| > 1 | < 0.1 | 0.1 to 1 | – | CC(=O)N1CCN(c2ccc(Nc3nccc(-c4sc(C(C)C)nc4-c4cccc(NS(=O)(=O)c5cc(F)ccc5F)c4)n3)cn2)CC1 [Example 96] |
| < 0.1 | < 0.1 | < 0.1 | – | Cc1cc(N2CCC(N3CCCCC3)CC2)ccc1Nc1nccc(-c2sc(C(C)C)nc2-c2cccc(NS(=O)(=O)c3c(F)cccc3F)c2)n1 [Example 91] |
| 0.1 to 1 | < 0.1 | > 1 | – | CC(C)c1nc(-c2cc(F)cc(NS(=O)(=O)c3c(F)cccc3F)c2)c(-c2ccnc(Nc3ccc(N4CCOCC4)c(F)c3)n2)s1 [Example 85] |
| 0.1 to 1 | < 0.1 | > 1 | – | CC(C)c1nc(-c2cccc(NS(=O)(=O)c3c(F)cccc3F)c2)c(-c2ccnc(Nc3cc(F)c(N4CCN(CCS(C)(=O)=O)CC4)cc3F)n2)s1 [Example 87] |
| > 1 | < 0.1 | < 0.1 | – | CC(C)c1nc(-c2cccc(NS(=O)(=O)c3c(F)cccc3F)c2)c(-c2ccnc(Nc3ccc(N4CCN(CCO)CC4)nc3)n2)s1 [Example 80] |
| 0.1 to 1 | – | 0.1 to 1 | < 0.1 | CCc1nc(-c2cccc(NS(=O)(=O)c3ccccc3)c2)c(-c2ccnc(Nc3ccc(OC)c(N4CCN(CCS(C)(=O)=O)CC4)c3)n2)s1 [Example 5, N-[3-(2-Ethyl-5-{2-[(4-(methyloxy)-3-{4-[2-(methylsulfonyl)ethyl]-1-piperazinyl}phenyl)amino]-4-pyrimidinyl}-1,3-thiazol-4-yl)phenyl]benzenesulfonamide] |
| 0.1 to 1 | < 0.1 | 0.1 to 1 | – | CC(C)c1nc(-c2cccc(NS(=O)(=O)c3c(F)cccc3F)c2)c(-c2ccnc(Nc3ccc(N4CC[C@@H](O)C4)nc3)n2)s1 [Example 89] |
| > 1 | < 0.1 | > 1 | – | CC(C)c1nc(-c2cc(F)cc(NS(=O)(=O)c3ccc(F)cc3)c2)c(-c2ccnc(Nc3ccc(N4CCOCC4)c(F)c3)n2)s1 [Example 83] |
| < 0.1 | < 0.1 | 0.1 to 1 | – | CC(=O)N1CCc2cc(Nc3nccc(-c4sc(C(C)C)nc4-c4cccc(NS(=O)(=O)c5ccccc5)c4)n3)ccc21 [Example 71] |
| 0.1 to 1 | < 0.1 | < 0.1 | – | CC(C)c1nc(-c2cccc(NS(=O)(=O)c3c(F)cccc3F)c2)c(-c2ccnc(Nc3cccc(N4CCN(C)CC4)c3)n2)s1 [Example 81] |
| 0.1 to 1 | < 0.1 | 0.1 to 1 | – | C=C(C)c1nc(-c2cccc(NS(=O)(=O)c3c(F)cccc3F)c2)c(-c2ccnc(Nc3ccc(N4CCN(CCF)CC4)c(F)c3)n2)s1 [Example 93] |
| 0.1 to 1 | < 0.1 | 0.1 to 1 | – | CC(C)c1nc(-c2ccc(F)c(NS(=O)(=O)c3c(F)cccc3F)c2)c(-c2ccnc(Nc3ccc(N4CCN(CCS(C)(=O)=O)CC4)c(F)c3)n2)s1 [Example 95] |
| 0.1 to 1 | < 0.1 | 0.1 to 1 | – | CC(C)c1nc(-c2cccc(NS(=O)(=O)c3ccccc3)c2)c(-c2ccnc(Nc3ccc(F)c(N4CCN(CCS(C)(=O)=O)CC4)c3)n2)s1 [Example 73] |
| > 1 | < 0.1 | > 1 | – | CC(C)c1nc(-c2cccc(NS(=O)(=O)c3ccccc3)c2)c(-c2ccnc(Nc3ccc(N4CCN(CCS(C)(=O)=O)CC4)c(F)c3F)n2)s1 [Example 74] |

From patent publication US20110319392A1, “Thiazole Sulfonamide And Oxazole Sulfonamide Kinase Inhibitors” (priority 2009, published 2011)
